Data reported in ChEMBL document CHEMBL1201862, “PubChem BioAssay data set” (2004).
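Assay format: 96-well plates, 48-hour exposure. GI50: concentration for 50% inhibition of growth.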 Active and inactive are the calls of the source. Rule as the data show it: active = GI50 up to about 1.1 µM and inactive = higher.

Assays:
Assay in all cases: NCI-60 cell line screen, 48 h
RXF 393 = test system: RXF 393
HCT-15 = test system: HCT-15
EKVX = test system: EKVX
COLO 205 = test system: COLO 205
T47D = test system: T47D
M14 = test system: M14
U-251 = test system: U-251
SNB-75 = test system: SNB-75
OVCAR-5 = test system: OVCAR-5
NCI/ADR-RES = test system: NCI/ADR-RES
SK-MEL-28 = test system: SK-MEL-28
A549 = test system: A549
LOX IMVI = test system: LOX IMVI
OVCAR-8 = test system: OVCAR-8
NCI-H23 = test system: NCI-H23
SN12C = test system: SN12C
OVCAR-4 = test system: OVCAR-4
A498 = test system: A498
SR = test system: SR

Row | SMILES | GI50 (RXF 393) | GI50 (HCT-15) [µM] | GI50 (EKVX) | GI50 (COLO 205) | GI50 (T47D) | GI50 (M14) | GI50 (U-251) | GI50 (SNB-75) | GI50 (OVCAR-5) | GI50 (NCI/ADR-RES) | GI50 (SK-MEL-28) | GI50 (A549) | GI50 (LOX IMVI) | GI50 (OVCAR-8) | GI50 (NCI-H23) | GI50 (SN12C) | GI50 (OVCAR-4) | GI50 (A498) | GI50 (SR)
1 | COc1ccc(/C=C/C(=O)CC(=O)/C=C/c2ccc(OC)cc2)cc1 | 23.8 µM (inactive) | 42.9 | 54.7 µM (inactive) | 69.5 µM (inactive) | > 100 µM (inactive) | 77.8 µM (inactive) | 41.3 µM (inactive) | > 100 µM (inactive) | 46.2 µM (inactive) | 36.1 µM (inactive) | 36.4 µM (inactive) | 80.4 µM (inactive) | 1.4 µM (inactive) | 21.4 µM (inactive) | 8.53 µM (inactive) | 61.5 µM (inactive) |  |  | 
2 | C=C1C(=O)[C@]23[C@H](O)[C@H]1CC[C@H]2[C@@]12CO[C@@]3(O)C[C@@H]1C(C)(C)CC[C@@H]2O [MEGATHYRIN A] | 4.03 µM (inactive) | 6.95 | 9.79 µM (inactive) | 3.98 µM (inactive) |  |  |  | 4.91 µM (inactive) | > 25 µM (inactive) | 9.66 µM (inactive) | 7.14 µM (inactive) | 16.2 µM (inactive) | 4.25 µM (inactive) | 8.57 µM (inactive) | 7.4 µM (inactive) | 7.85 µM (inactive) | > 25 µM (inactive) | 7.45 µM (inactive) | 7.55 µM (inactive)
3 | COc1cc(OC)c2c(c1-c1ccc(C)cc1)CC(C)N(Cc1ccccc1)[C@H]2C (stereo partly specified) |  | 35.9 | 43.9 µM (inactive) | 32.3 µM (inactive) | 23.8 µM (inactive) | 43.2 µM (inactive) |  | 6.9 µM (inactive) |  |  | 38.2 µM (inactive) | 44.2 µM (inactive) | 36.2 µM (inactive) | 39.4 µM (inactive) | 35 µM (inactive) | 35.9 µM (inactive) |  | 87.7 µM (inactive) | 30.3 µM (inactive)
4 | CC(C)c1ccc(/C=C2\N=C(c3ccc([N+](=O)[O-])cc3)OC2=O)cc1 | 14.9 µM (inactive) | > 100 | > 100 µM (inactive) | > 100 µM (inactive) | > 100 µM (inactive) | > 100 µM (inactive) | 54.2 µM (inactive) | > 100 µM (inactive) | > 100 µM (inactive) |  | > 100 µM (inactive) | > 100 µM (inactive) | > 100 µM (inactive) | > 100 µM (inactive) | > 100 µM (inactive) | > 100 µM (inactive) | > 100 µM (inactive) | > 100 µM (inactive) | > 100 µM (inactive)
5 | O=C1NC(=S)N/C1=C\c1ccc(Cl)cc1 | > 100 µM (inactive) | > 100 | 33.6 µM (inactive) | 80.5 µM (inactive) | 42.5 µM (inactive) | > 100 µM (inactive) | > 100 µM (inactive) | > 100 µM (inactive) | > 100 µM (inactive) | > 100 µM (inactive) | > 100 µM (inactive) | 93.1 µM (inactive) | > 100 µM (inactive) | > 100 µM (inactive) | > 100 µM (inactive) | > 100 µM (inactive) | 39.2 µM (inactive) |  | 
6 | CC1(CC2=C(C(=O)NCCO[Si](C)(C)C(C)(C)C)C3(OCCO3)C2=O)OCCO1 |  | > 100 | > 100 µM (inactive) | > 100 µM (inactive) | 59.8 µM (inactive) | > 100 µM (inactive) | > 100 µM (inactive) | 36.5 µM (inactive) | > 100 µM (inactive) | > 100 µM (inactive) | > 100 µM (inactive) | > 100 µM (inactive) | 57.5 µM (inactive) | > 100 µM (inactive) | 63.5 µM (inactive) | > 100 µM (inactive) | > 100 µM (inactive) | > 100 µM (inactive) | 
7 | Cc1ccc(S(=O)(=O)n2c3ccc(Br)cc3c3nc4ccccc4nc32)cc1 | > 100 µM (inactive) | > 100 |  | > 100 µM (inactive) | > 100 µM (inactive) | > 100 µM (inactive) | > 100 µM (inactive) | > 100 µM (inactive) | > 100 µM (inactive) | > 100 µM (inactive) | > 100 µM (inactive) | > 100 µM (inactive) | > 100 µM (inactive) | > 100 µM (inactive) | > 100 µM (inactive) | > 100 µM (inactive) | 72.8 µM (inactive) | > 100 µM (inactive) | 
8 | C=C(C(=O)OCC)C(=O)OCC | > 100 µM (inactive) | > 100 | > 100 µM (inactive) | > 100 µM (inactive) | > 100 µM (inactive) | > 100 µM (inactive) | > 100 µM (inactive) | > 100 µM (inactive) | > 100 µM (inactive) |  | > 100 µM (inactive) | > 100 µM (inactive) | > 100 µM (inactive) | > 100 µM (inactive) | > 100 µM (inactive) | > 100 µM (inactive) |  |  | 20.7 µM (inactive)
9 | CCc1cccc(CC)c1Nc1nc2c(s1)C(=O)c1ccccc1C2=O | 24.8 µM (inactive) | 25.7 | 16.3 µM (inactive) | 22.9 µM (inactive) | 33.6 µM (inactive) | 17.4 µM (inactive) | 15.8 µM (inactive) | 11.8 µM (inactive) | 20.3 µM (inactive) |  | 19.1 µM (inactive) | 31.4 µM (inactive) | 18 µM (inactive) |  | 15.3 µM (inactive) | 15.8 µM (inactive) |  | > 10 µM (inactive) | 23.3 µM (inactive)
10 | O=[N+]([O-])C(=C1Nc2ccccc2N1)/C(Cl)=C(/Cl)N1CCOCC1 |  | 31.8 | > 100 µM (inactive) | 80.9 µM (inactive) | 15.1 µM (inactive) | 88.5 µM (inactive) | 61.9 µM (inactive) | 97.7 µM (inactive) | > 100 µM (inactive) | 57.8 µM (inactive) | > 100 µM (inactive) | > 100 µM (inactive) |  | 28.8 µM (inactive) | 29.3 µM (inactive) | > 100 µM (inactive) | 25.4 µM (inactive) | > 100 µM (inactive) | 
11 | O=C1C=CC2CCC1C2 (stereo unspecified) |  | 18.2 | > 100 µM (inactive) | 33.7 µM (inactive) | 19.9 µM (inactive) | 27.4 µM (inactive) | 28.8 µM (inactive) | 27.5 µM (inactive) | 26.2 µM (inactive) | 22.4 µM (inactive) | 23.5 µM (inactive) | 40.6 µM (inactive) | 29.4 µM (inactive) | 28.7 µM (inactive) | 20.6 µM (inactive) | 30.4 µM (inactive) |  | 90.2 µM (inactive) | 
12 | COc1ccc([C@@H]2OC(=O)C3C2C(=O)O[C@H]3c2ccc(OC)c(OC)c2)cc1OC (stereo partly specified) | > 100 µM (inactive) | > 100 | > 100 µM (inactive) | > 100 µM (inactive) |  | > 100 µM (inactive) | > 100 µM (inactive) | 81.5 µM (inactive) |  |  | > 100 µM (inactive) | > 100 µM (inactive) | > 100 µM (inactive) | > 100 µM (inactive) | > 100 µM (inactive) | > 100 µM (inactive) | > 100 µM (inactive) | > 100 µM (inactive) | 
13 | O=C(O)c1ccc(P(=O)(O)c2ccc(C(=O)O)cc2Br)c(Br)c1 | > 100 µM (inactive) | > 100 | > 100 µM (inactive) | > 100 µM (inactive) |  | > 100 µM (inactive) |  | > 100 µM (inactive) |  |  | > 100 µM (inactive) | > 100 µM (inactive) | > 100 µM (inactive) | > 100 µM (inactive) | > 100 µM (inactive) | > 100 µM (inactive) |  |  | 
14 | COc1ccccc1NC(=S)N/N=C/c1cccc(C)n1 |  | 2.31 | 4.67 µM (inactive) | 1.68 µM (inactive) |  | 2.18 µM (inactive) | 4.26 µM (inactive) | 5.62 µM (inactive) | > 27.4 µM (inactive) | 3.31 µM (inactive) | 8.53 µM (inactive) | 4.16 µM (inactive) | 2.3 µM (inactive) | 4.07 µM (inactive) | 5.83 µM (inactive) | 7.1 µM (inactive) | 14.2 µM (inactive) | 23.6 µM (inactive) | 2.43 µM (inactive)
15 | OCCN(CO)CO | > 100 µM (inactive) | > 100 | > 100 µM (inactive) | > 100 µM (inactive) | > 100 µM (inactive) | > 100 µM (inactive) | > 100 µM (inactive) | > 100 µM (inactive) |  | > 100 µM (inactive) | > 100 µM (inactive) | > 100 µM (inactive) |  | > 100 µM (inactive) | > 100 µM (inactive) | > 100 µM (inactive) | > 100 µM (inactive) | > 100 µM (inactive) | 
16 | C=C1C(=O)OC2C1CC(OC(C)=O)/C(C)=C/CCC1(C)OC21 (stereo unspecified) |  | > 100 | > 100 µM (inactive) | > 100 µM (inactive) | > 100 µM (inactive) | > 100 µM (inactive) | > 100 µM (inactive) | > 100 µM (inactive) | > 100 µM (inactive) | > 100 µM (inactive) | > 100 µM (inactive) | > 100 µM (inactive) | > 100 µM (inactive) | > 100 µM (inactive) | > 100 µM (inactive) | > 100 µM (inactive) | > 100 µM (inactive) |  | 
17 | COc1ccc(OC)c(N2C(=O)CSC2c2cc(OC)c(OC)c(OC)c2)c1 (stereo unspecified) |  | 98.4 | > 100 µM (inactive) | > 100 µM (inactive) |  | > 100 µM (inactive) | > 100 µM (inactive) |  | > 100 µM (inactive) | > 100 µM (inactive) | > 100 µM (inactive) | > 100 µM (inactive) | > 100 µM (inactive) | > 100 µM (inactive) | > 100 µM (inactive) | > 100 µM (inactive) | > 100 µM (inactive) | > 100 µM (inactive) | 46 µM (inactive)
